The values below come from US8741803B2, “Pesticidal composition and method for controlling pest” (Kumiai Chemical Industry Co., Ltd., priority 2007, dated 2014).

The test system of experiment [1] is two-spotted spider mites. The experiment can be described thus: Test Example 1: miticidal test on two-spotted spider mites (compound 6, flubendiamide and their mixture; soybean seedling dipping, 13 days). The format is in vivo, Tetranychus urticae. Particulars: Flubendiamide alone, 50.0 ppm, 25° C. As for the experimental part:
(§1) Each of the compound 6, flubendiamide, and a mixture of the compound 6 and flubendiamide was formulated into a wettable powder in accordance with Formulation Example 2. The respective formulations were diluted with water to an active ingredient concentration as identified in Table 15, and to the respective solutions, a spreader (KUMITEN manufactured by Kumiai Chemical Industry Co., Ltd.) was added at a concentration of 0.05% of the entire amount. Soybean seedlings which had been inoculated with imago two-spotted spider mites were dipped in each of the resulting solutions and dried in air. The seedlings were placed in a thermostatic chamber at 25° C. for 13 days, and the mite survivors were counted for calculation of the miticidal value by using Equation 2. The test was carried out by one series system. The predictive value in the Table was calculated based on the Colby formula (S. R. Colby (Weeds 15 (1967), 20-22) of Equation 1.
(§2) [formula] wherein X, Y and E are the following values.
(§3) X: The miticidal value of the component A at a predetermined concentration.
(§4) Y: The miticidal value of the component B at a predetermined concentration.
E: Predictive value (theoretical expected value) of the component A and the component B in combination at the respective predetermined concentrations. […]

The subject of a further experiment is cotton aphid. The experiment is described as follows: Test Example 3: insecticidal test on cotton aphid (compound 6, pyridalyl and their mixture; root zone irrigation of cucumber seedlings, 3 days). The format is in vivo, Aphis qossypii. Particulars: Pyridalyl alone, 100.0 ppm, 25° C. As for the experimental part:
as §2
(§5) When the practical miticidal value of the insecticide exceeds E (predictive value), a synergistic effect is obtained.
Each of the compound 6, pyridalyl, and a mixture of the compound 6 and pyridalyl was formulated into a wettable powder in accordance with Formulation Example 2. The respective formulations were diluted with water to an active ingredient concentration as identified in Table 17, and to the respective solutions, a spreader (KUMITEN manufactured by Kumiai Chemical Industry Co., Ltd.) was added at a concentration of 0.05% of the entire amount. The root zone of cucumber seedlings which had been inoculated with larvae of cotton aphid were irrigated with 5 mL of each of the solutions. The treated seedlings were placed in a thermostatic chamber at 25° C. for 3 days, and the survivors were counted for calculation of the insecticidal degree by Equation 3. The test was carried out by two series system. The predictive value in the Table was calculated based on the Colby formula of Equation 1.

In experiment [2] the test system is two-spotted spider mites. The experiment can be described thus: Test Example 2: miticidal test on two-spotted spider mites (compound 6, tebufenozide and their mixture; soybean seedling dipping, 13 days). The format is in vivo, Tetranychus urticae. Particulars: Tebufenozide alone, 100.0 ppm, 25° C.
From the text: as §2, §3, §4
E: Predictive value (theoretical expected value) of the component A and the component B in combination at the respective predetermined concentrations.
as §5
as §1, with “tebufenozide,” for “flubendiamide,”, “tebufenozide” for “flubendiamide”, “16,” for “15,”, “theoretical” for “predictive”, “formula” for “formula (S. R. Colby (Weeds 15 (1967), 20-22)”

Molecules are shown by their SMILES.

With `Cc1cc(C(F)(C(F)(F)F)C(F)(F)F)ccc1NC(=O)c1cccc(I)c1C(=O)NC(C)(C)CS(C)(=O)=O` [flubendiamide], the Miticidal value in the experiment with two-spotted spider mites [1] is 13. As for `FC(F)(F)c1ccc(OCCCOc2c(Cl)cc(OCC=C(Cl)Cl)cc2Cl)nc1` [pyridalyl], the Insecticidal degree in the experiment with cotton aphid came out at 10. Regarding `CCc1ccc(C(=O)NN(C(=O)c2cc(C)cc(C)c2)C(C)(C)C)cc1` [tebufenozide], the Miticidal value with two-spotted spider mites [2] was found to be 3.
